From patent US10526295B2, “Nuclear transport modulators and uses thereof” (Karyopharm Therapeutics Inc., priority 2015, dated 2020)
pIC50: −log10 of the molar value.

Key:
Format in all cases: cell-based
MM1S cells = test: MTT cell proliferation assay (MM1S); conditions: Homo sapiens, MM1.S; MM1S multiple myeloma cells; approximately 64-72 hours incubation; 1 nM to 30 μM
Protocol: (§1) The MTT cell proliferation assay was used to study the cytotoxic properties of the compounds. The assay was performed according to the method described by Roche Molecular Biochemicals, with minor modifications. The assay is based on the cleavage of the tetrazolium salt, MTT, in the presence of an electron-coupling reagent. The water-insoluble formazan salt produced must be solubilized in an additional step. Cells grown in a 96-well tissue culture plate were incubated with the MTT solution for approximately 4 hours. After this incubation period, a water-insoluble formazan dye formed. After solubilization, the formazan dye was quantitated using a scanning multi-well spectrophotometer (ELISA reader). […] The cells were seeded at 5,000-10,000 cells in each well of 96-well plate in 100 μL of fresh culture medium and were allowed to attach overnight. The stock solutions of the compounds were diluted in 100 μL cell culture medium to obtain eight concentrations of each test compound, ranging from 1 nM to 30 μM. […] All optical densities were measured at 490 nm using a Vmax Kinetic Microplate Reader (Molecular Devices). In most cases, the assay was performed in duplicate and the results were presented as a mean percent inhibition to the negative control±SE. The following formula was used to calculate the percent of inhibition: Inhibition (%)=(1−(ODo/OD))×100.
(§2) The compounds were tested against Z138, MM1S and 3T3 cells. The Z138 cell line is a mature B-cell acute lymphoblastic leukemia cell line derived from a patient with chronic lumphocytic leukemia. The MM1S cell line was established from the peripheral blood of a human multiple myeloma patient. 3T3 cells are standard fibroblast cells; they were originally isolated from Swiss mouse embryo tissue.

Z138 cells = test: MTT cell proliferation assay (Z138); conditions: Homo sapiens, Z-138, approximately 64-72 hours incubation, 1 nM to 30 μM
Protocol: as §1, §2

3T3 cells = test: MTT cell proliferation assay (3T3); conditions: Mus musculus, NIH3T3; 3T3 fibroblast cells; approximately 64-72 hours incubation; 1 nM to 30 μM
Protocol: as §1, §2

Structure (SMILES) | pIC50 (MM1S cells) | pIC50 (Z138 cells) | pIC50 (3T3 cells)
NC(=O)/C(=C/n1cnc(-c2cc(C(F)(F)F)cc(C(F)(F)F)c2)n1)c1ccc(S(=O)(=O)N2CCC(C(F)(F)F)CC2)cc1 [Compound 106, (E)-3-(3-(3,5-bis(trifluoromethyl)phenyl)-1H-1,2,4-triazol-1-yl)-2-(4-(4-(trifluoromethyl)piperidin-1-ylsulfonyl)phenyl)acrylamide] | 5.30 to 7.00 | 5.30 to 7.00 | < 4.52
NC(=O)/C(=C/n1cnc(-c2cc(C(F)(F)F)cc(C(F)(F)F)c2)n1)c1ccc(S(=O)(=O)N2CCCC2)cc1 [Compound 112, (E)-3-(3-(3,5-bis(trifluoromethyl)phenyl)-1H-1,2,4-triazol-1-yl)-2-(4-(pyrrolidin-1-ylsulfonyl)phenyl)acrylamide] | > 7.00 | > 7.00 | 5.30 to 7.00
NC(=O)/C(=C/n1cnc(-c2cc(C(F)(F)F)cc(C(F)(F)F)c2)n1)c1ccc(S(=O)(=O)N2CCCOCC2)cc1 [Compound 118, (E)-2-(4-(1,4-oxazepan-4-ylsulfonyl)phenyl)-3-(3-(3,5-bis(trifluoromethyl)phenyl)-1H-1,2,4-triazol-1-yl)acrylamide] | > 7.00 | > 7.00 | 5.30 to 7.00
NC(=O)/C(=C/n1cnc(-c2cc(C(F)(F)F)cc(C(F)(F)F)c2)n1)c1ccc(S(=O)(=O)N2CCC(F)(F)C2)cc1 [Compound 113, (E)-3-(3-(3,5-bis(trifluoromethyl)phenyl)-1H-1,2,4-triazol-1-yl)-2-(4-(3,3-difluoropyrrolidin-1-ylsulfonyl)phenyl)acrylamide] | > 7.00 | > 7.00 | > 7.00
NC(=O)/C(=C/n1cnc(-c2cc(C(F)(F)F)cc(C(F)(F)F)c2)n1)c1ccc(S(=O)(=O)N2CCCCC2)cc1 [Compound 109, (E)-3-(3-(3,5-bis(trifluoromethyl)phenyl)-1H-1,2,4-triazol-1-yl)-2-(4-(piperidin-1-ylsulfonyl)phenyl)acrylamide] | 5.30 to 7.00 | 5.30 to 7.00 | 5.30 to 7.00
NC(=O)/C(=C/n1cnc(-c2cc(C(F)(F)F)cc(C(F)(F)F)c2)n1)c1ccc(S(=O)(=O)N2CCC(F)(F)CC2)cc1 [Compound 105, (E)-3-(3-(3,5-bis(trifluoromethyl)phenyl)-1H-1,2,4-triazol-1-yl)-2-(4-(4,4-difluoropiperidin-1-ylsulfonyl)phenyl)acrylamide] | > 7.00 | > 7.00 | 5.30 to 7.00
NC(=O)/C(=C/n1cnc(-c2cc(C(F)(F)F)cc(C(F)(F)F)c2)n1)c1ccc(S(=O)(=O)N2CCOCC2)cc1 [Compound 108, (E)-3-(3-(3,5-bis(trifluoromethyl)phenyl)-1H-1,2,4-triazol-1-yl)-2-(4-(morpholinosulfonyl)phenyl)acrylamide] | > 7.00 | 5.30 to 7.00 | 5.30 to 7.00
NC(=O)/C(=C/n1cnc(-c2cc(C(F)(F)F)cc(C(F)(F)F)c2)n1)c1ccc(S(=O)(=O)N2CC(F)(F)C2)cc1 [Compound 111, (E)-3-(3-(3,5-bis(trifluoromethyl)phenyl)-1H-1,2,4-triazol-1-yl)-2-(4-(3,3-difluoroazetidin-1-ylsulfonyl)phenyl)acrylamide] | > 7.00 | > 7.00 | 5.30 to 7.00
NC(=O)/C(=C/n1cnc(-c2cc(C(F)(F)F)cc(C(F)(F)F)c2)n1)c1ccc(S(=O)(=O)N2CCC2)cc1 [Compound 107, (E)-2-(4-(azetidin-1-ylsulfonyl)phenyl)-3-(3-(3,5-bis(trifluoromethyl)phenyl)-1H-1,2,4-triazol-1-yl)acrylamide] | > 7.00 | > 7.00 | 5.30 to 7.00
CC1(C)CN(S(=O)(=O)c2ccc(/C(=C\n3cnc(-c4cc(C(F)(F)F)cc(C(F)(F)F)c4)n3)C(N)=O)cc2)CCO1 [Compound 116, (E)-3-(3-(3,5-bis(trifluoromethyl)phenyl)-1H-1,2,4-triazol-1-yl)-2-(4-(2,2-dimethylmorpholinosulfonyl)phenyl)acrylamide] | 5.30 to 7.00 | 5.30 to 7.00 | 5.30 to 7.00
NC(=O)/C(=C/n1cnc(-c2cc(C(F)(F)F)cc(C(F)(F)F)c2)n1)c1cccc(S(=O)(=O)N2CCC(C(F)(F)F)CC2)c1 [Compound 126, (E)-3-(3-(3,5-bis(trifluoromethyl)phenyl)-1H-1,2,4-triazol-1-yl)-2-(3-(4-(trifluoromethyl)piperidin-1-ylsulfonyl)phenyl)acrylamide] | 4.52 to 5.30 | 5.30 to 7.00 | < 4.52
CN1CCN(S(=O)(=O)c2ccc(/C(=C\n3cnc(-c4cc(C(F)(F)F)cc(C(F)(F)F)c4)n3)C(N)=O)cc2)CC1 [Compound 115, (E)-3-(3-(3,5-bis(trifluoromethyl)phenyl)-1H-1,2,4-triazol-1-yl)-2-(4-(4-methylpiperazin-1-ylsulfonyl)phenyl)acrylamide] | 5.30 to 7.00 | 5.30 to 7.00 | 5.30 to 7.00
NC(=O)/C(=C/n1cnc(-c2cc(C(F)(F)F)cc(C(F)(F)F)c2)n1)c1ccc(S(=O)(=O)N2CCC(F)CC2)cc1 [Compound 114, (E)-3-(3-(3,5-bis(trifluoromethyl)phenyl)-1H-1,2,4-triazol-1-yl)-2-(4-(4-fluoropiperidin-1-ylsulfonyl)phenyl)acrylamide] | > 7.00 | > 7.00 | > 7.00

More lines, main results first:

pIC50 (MM1S cells) | Structure (SMILES) | pIC50 (Z138 cells) | pIC50 (3T3 cells)
5.30 to 7.00 | NC(=O)/C(=C/n1cnc(-c2cc(C(F)(F)F)cc(C(F)(F)F)c2)n1)c1cccc(S(=O)(=O)N2CCC(F)CC2)c1 [Compound 120, (E)-3-(3-(3,5-bis(trifluoromethyl)phenyl)-1H-1,2,4-triazol-1-yl)-2-(3-(4-fluoropiperidin-1-ylsulfonyl)phenyl)acrylamide] | 5.30 to 7.00 | < 4.52
5.30 to 7.00 | NC(=O)/C(=C/n1cnc(-c2cc(C(F)(F)F)cc(C(F)(F)F)c2)n1)c1cccc(S(=O)(=O)N2CCC2)c1 [Compound 127, (E)-2-(3-(azetidin-1-ylsulfonyl)phenyl)-3-(3-(3,5-bis(trifluoromethyl)phenyl)-1H-1,2,4-triazol-1-yl)acrylamide] | 5.30 to 7.00 | 5.30 to 7.00
5.30 to 7.00 | NC(=O)/C(=C/n1cnc(-c2cc(C(F)(F)F)cc(C(F)(F)F)c2)n1)c1cccc(S(=O)(=O)N2CC(F)(F)C2)c1 [Compound 121, (E)-3-(3-(3,5-bis(trifluoromethyl)phenyl)-1H-1,2,4-triazol-1-yl)-2-(3-(3,3-difluoroazetidin-1-ylsulfonyl)phenyl)acrylamide] | 5.30 to 7.00 | < 4.52
5.30 to 7.00 | CN1CCN(S(=O)(=O)c2cccc(/C(=C\n3cnc(-c4cc(C(F)(F)F)cc(C(F)(F)F)c4)n3)C(N)=O)c2)CC1 [Compound 124, (E)-3-(3-(3,5-bis(trifluoromethyl)phenyl)-1H-1,2,4-triazol-1-yl)-2-(3-(4-methylpiperazin-1-ylsulfonyl)phenyl)acrylamide] | 5.30 to 7.00 | < 4.52
5.30 to 7.00 | CS(=O)(=O)Nc1cccc(/C(=C\n2cnc(-c3cc(C(F)(F)F)cc(C(F)(F)F)c3)n2)C(N)=O)c1 [Compound 102, (E)-3-(3-(3,5-bis(trifluoromethyl)phenyl)-1H-1,2,4-triazol-1-yl)-2-(3-(methylsulfonamido)phenyl)acrylamide] | 5.30 to 7.00 | < 4.52
> 7.00 | NC(=O)/C(=C/n1cnc(-c2cc(C(F)(F)F)cc(C(F)(F)F)c2)n1)c1ccc(S(=O)(=O)C2CC2)cc1 [Compound 101, (E)-3-(3-(3,5-bis(trifluoromethyl)phenyl)-1H-1,2,4-triazol-1-yl)-2-(4-(cyclopropylsulfonyl)phenyl)acrylamide] | > 7.00 | > 7.00
> 7.00 | NC(=O)/C(=C/n1cnc(-c2cc(C(F)(F)F)cc(C(F)(F)F)c2)n1)c1ccc(S(=O)(=O)NC2CC2)cc1 [Compound 100, (E)-3-(3-(3,5-bis(trifluoromethyl)phenyl)-1H-1,2,4-triazol-1-yl)-2-(4-(N-cyclopropylsulfamoyl)phenyl)acrylamide] | > 7.00 | < 4.52
5.30 to 7.00 | CN(C)S(=O)(=O)c1ccc(/C(=C\n2cnc(-c3cc(C(F)(F)F)cc(C(F)(F)F)c3)n2)C(N)=O)cc1 [Compound 104, (E)-3-(3-(3,5-bis(trifluoromethyl)phenyl)-1H-1,2,4-triazol-1-yl)-2-(4-(N,N-dimethylsulfamoyl)phenyl)acrylamide] | 5.30 to 7.00 | < 4.52
> 7.00 | CS(=O)(=O)c1ccc(/C(=C\n2cnc(-c3cc(C(F)(F)F)cc(C(F)(F)F)c3)n2)C(N)=O)cc1 [Compound 103, (E)-3-(3-(3,5-bis(trifluoromethyl)phenyl)-1H-1,2,4-triazol-1-yl)-2-(4-(methylsulfonyl)phenyl)acrylamide] | 5.30 to 7.00 | < 4.52
